Data on 27 compounds can be found in patent US9951063B2, “8-(piperazin-1-yl)-1,2,3,4-tetrahydro-isoquinoline derivatives” (IDORSIA PHARMACEUTICALS LTD, priority 2014, dated 2018).

The term IC50 denotes the midpoint of a concentration-inhibition curve.

The target in this test is human CXCR3A (Homo sapiens (Human), UniProt P49682). Kind of test: FLIPR assay (inhibition of CXCL10-induced calcium signal). Conditions: engineered CHO-K1 cells expressing human CXCR3A coupled to Galpha(16); Fluo-4-AM; CXCL10 agonist 20 nM; mean values where determined several times. In kind it is cell-based. An outline of the steps: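 CHO-K1 cells expressing human CXCR3A coupled to Gα16 were loaded with Fluo-4-AM for 1 h in HBSS/20 mM Hepes pH 7.4 with probenecid. Compound was added, then CXCL10 (20 nM as dispensed). Baseline-subtracted peak fluorescence gave inhibition curves and IC50, averaged over repeats.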
human CXCR3A, sequence (P49682 whole entry): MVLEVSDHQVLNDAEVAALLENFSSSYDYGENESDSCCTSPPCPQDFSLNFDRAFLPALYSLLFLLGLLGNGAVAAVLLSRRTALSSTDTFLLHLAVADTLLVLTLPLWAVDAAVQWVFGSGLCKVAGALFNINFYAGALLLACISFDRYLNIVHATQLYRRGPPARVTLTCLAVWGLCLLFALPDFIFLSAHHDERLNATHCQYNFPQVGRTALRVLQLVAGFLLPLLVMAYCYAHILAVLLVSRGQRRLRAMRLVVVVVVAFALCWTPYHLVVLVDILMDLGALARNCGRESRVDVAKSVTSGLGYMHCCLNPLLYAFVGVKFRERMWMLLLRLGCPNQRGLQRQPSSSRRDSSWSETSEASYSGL
With `COc1cccc(N2CCc3cccc(N4CCN(C(=O)Cn5cnc6cccnc65)[C@H](C)C4)c3C2)c1` [Example 97, 2-Imidazo[4,5-b]pyridin-3-yl-1-{(R)-4-[2-(3-methoxy-phenyl)-1,2,3,4-tetrahydro-isoquinolin-8-yl]-2-methyl-piperazin-1-yl}-ethanone], the IC50 came out at 4.38 nM.

For `C[C@@H]1CN(c2cccc3c2CN(c2ccc(OC(F)(F)F)cc2)CC3)CCN1C(=O)Cn1cnc2cccnc21` [Example 98, 2-Imidazo[4,5-b]pyridin-3-yl-1-{(R)-2-methyl-4-[2-(4-trifluoromethoxy-phenyl)-1,2,3,4-tetrahydro-isoquinolin-8-yl]-piperazin-1-yl}-ethanone], the IC50 amounted to 11.6 nM.

Regarding `C[C@@H]1CN(c2cccc3c2CN(c2ccc(F)cc2)CC3)CCN1C(=O)Cn1cnc2cccnc21` [Example 99, 1-{(R)-4-[2-(4-Fluoro-phenyl)-1,2,3,4-tetrahydro-isoquinolin-8-yl]-2-methyl-piperazin-1-yl}-2-imidazo[4,5-b]pyridin-3-yl-ethanone], the IC50 stood at 8.3 nM.

As to `C[C@@H]1CN(c2cccc3c2CN(c2ccc(C(F)(F)F)nc2)CC3)CCN1C(=O)Cn1cnc2cccnc21` [Example 100, 2-Imidazo[4,5-b]pyridin-3-yl-1-{(R)-2-methyl-4-[2-(6-trifluoromethyl-pyridin-3-yl)-1,2,3,4-tetrahydro-isoquinolin-8-yl]-piperazin-1-yl}-ethanone], the half-maximal inhibitory concentration (IC50) came out at 1.25 nM.

On to `C[C@@H]1CN(c2cccc3c2CN(c2ccccc2)CC3)CCN1C(=O)Cn1cnc2cccnc21` [Example 101, 2-Imidazo[4,5-b]pyridin-3-yl-1-[(R)-2-methyl-4-(2-phenyl-1,2,3,4-tetrahydro-isoquinolin-8-yl)-piperazin-1-yl]-ethanone], for which the IC50 worked out at 14.7 nM.

As to `C[C@@H]1CN(c2cccc3c2CN(c2ncccn2)CC3)CCN1C(=O)Cn1cnc2cccnc21` [Example 102, 2-Imidazo[4,5-b]pyridin-3-yl-1-[(R)-2-methyl-4-(2-pyrimidin-2-yl-1,2,3,4-tetrahydro-isoquinolin-8-yl)-piperazin-1-yl]-ethanone], the IC50 came to 29.1 nM.

In the case of `C[C@@H]1CN(c2cccc3c2CN(c2ccc(C(F)(F)F)cn2)CC3)CCN1C(=O)Cn1cnc2cccnc21` [Example 103, 2-Imidazo[4,5-b]pyridin-3-yl-1-{(R)-2-methyl-4-[2-(5-trifluoromethyl-pyridin-2-yl)-1,2,3,4-tetrahydro-isoquinolin-8-yl]-piperazin-1-yl}-ethanone], the concentration for half-maximal inhibition (IC50) is 20.7 nM.

As for `C[C@@H]1CN(c2cccc3c2CN(c2ccccn2)CC3)CCN1C(=O)Cn1cnc2cccnc21` [Example 104, 2-Imidazo[4,5-b]pyridin-3-yl-1-[(R)-2-methyl-4-(2-pyridin-2-yl-1,2,3,4-tetrahydro-isoquinolin-8-yl)-piperazin-1-yl]-ethanone], the 50% inhibitory concentration (IC50) stood at 9.71 nM.

Consider `COc1ccc(N2CCc3cccc(N4CCN(C(=O)Cn5cnc6cccnc65)[C@H](C)C4)c3C2)cc1` [Example 105, 2-Imidazo[4,5-b]pyridin-3-yl-1-{(R)-4-[2-(4-methoxy-phenyl)-1,2,3,4-tetrahydro-isoquinolin-8-yl]-2-methyl-piperazin-1-yl}-ethanone], for which the IC50 was 20.3 nM.

In the case of `C[C@@H]1CN(c2cccc3c2CN(c2cncnc2)CC3)CCN1C(=O)Cn1cnc2cccnc21` [Example 106, 2-Imidazo[4,5-b]pyridin-3-yl-1-[(R)-2-methyl-4-(2-pyrimidin-5-yl-1,2,3,4-tetrahydro-isoquinolin-8-yl)-piperazin-1-yl]-ethanone], the half-maximal inhibitory concentration (IC50) stood at 5.46 nM.

Consider `C[C@@H]1CN(c2cccc3c2CN(c2cnc(C(F)(F)F)nc2)CC3)CCN1C(=O)Cn1cnc2cccnc21` [Example 107, 2-Imidazo[4,5-b]pyridin-3-yl-1-{(R)-2-methyl-4-[2-(2-trifluoromethyl-pyrimidin-5-yl)-1,2,3,4-tetrahydro-isoquinolin-8-yl]-piperazin-1-yl}-ethanone], for which the IC50 came to 1.74 nM.

As for `Cc1cnc(N2CCc3cccc(N4CCN(C(=O)Cn5cnc6cccnc65)[C@H](C)C4)c3C2)nc1` [Example 108, 2-Imidazo[4,5-b]pyridin-3-yl-1-{(R)-2-methyl-4-[2-(5-methyl-pyrimidin-2-yl)-1,2,3,4-tetrahydro-isoquinolin-8-yl]-piperazin-1-yl}-ethanone], the IC50 amounted to 32.6 nM.

For `Cc1ncc(N2CCc3cccc(N4CCN(C(=O)Cn5cnc6cccnc65)[C@H](C)C4)c3C2)cn1` [Example 109, 2-Imidazo[4,5-b]pyridin-3-yl-1-{(R)-2-methyl-4-[2-(2-methyl-pyrimidin-5-yl)-1,2,3,4-tetrahydro-isoquinolin-8-yl]-piperazin-1-yl}-ethanone], the half-inhibitory concentration (IC50) worked out at 12.5 nM.

Turning to `CCCc1ncc(N2CCc3cccc(N4CCN(C(=O)Cn5cnc6cccnc65)[C@H](C)C4)c3C2)cn1` [Example 110, 2-Imidazo[4,5-b]pyridin-3-yl-1-{(R)-2-methyl-4-[2-(2-propyl-pyrimidin-5-yl)-1,2,3,4-tetrahydro-isoquinolin-8-yl]-piperazin-1-yl}-ethanone], the IC50 was 0.85 nM.

With `CC(C)Oc1ncc(N2CCc3cccc(N4CCN(C(=O)Cn5cnc6cccnc65)[C@H](C)C4)c3C2)cn1` [Example 111, 2-Imidazo[4,5-b]pyridin-3-yl-1-{(R)-4-[2-(2-isopropoxy-pyrimidin-5-yl)-1,2,3,4-tetrahydro-isoquinolin-8-yl]-2-methyl-piperazin-1-yl}-ethanone], the concentration for half-maximal inhibition (IC50) came to 4.83 nM.

For `C[C@@H]1CN(c2cccc3c2CN(c2cnc(OCC(F)(F)F)nc2)CC3)CCN1C(=O)Cn1cnc2cccnc21` [Example 112, 2-Imidazo[4,5-b]pyridin-3-yl-1-((R)-2-methyl-4-{2-[2-(2,2,2-trifluoro-ethoxy)-pyrimidin-5-yl]-1,2,3,4-tetrahydro-isoquinolin-8-yl}-piperazin-1-yl)-ethanone], the IC50 was found to be 2.98 nM.

As to `C[C@@H]1CN(c2cccc3c2CN(c2nccs2)CC3)CCN1C(=O)Cn1cnc2cccnc21` [Example 113, 2-Imidazo[4,5-b]pyridin-3-yl-1-[(R)-2-methyl-4-(2-thiazol-2-yl-1,2,3,4-tetrahydro-isoquinolin-8-yl)-piperazin-1-yl]-ethanone], the half-inhibitory concentration (IC50) was determined as 12.2 nM.

For the compound `Cc1csc(N2CCc3cccc(N4CCN(C(=O)Cn5cnc6cccnc65)[C@H](C)C4)c3C2)n1` [Example 114, 2-Imidazo[4,5-b]pyridin-3-yl-1-{(R)-2-methyl-4-[2-(4-methyl-thiazol-2-yl)-1,2,3,4-tetrahydro-isoquinolin-8-yl]-piperazin-1-yl}-ethanone], the half-inhibitory concentration (IC50) came out at 9.53 nM.

Regarding `C[C@@H]1CN(c2cccc3c2CN(c2ncc(-c4ccccc4)s2)CC3)CCN1C(=O)Cn1cnc2cccnc21` [Example 115, 2-Imidazo[4,5-b]pyridin-3-yl-1-{(R)-2-methyl-4-[2-(5-phenyl-thiazol-2-yl)-1,2,3,4-tetrahydro-isoquinolin-8-yl]-piperazin-1-yl}-ethanone], the half-maximal inhibitory concentration (IC50) was found to be 13.3 nM.

Consider `Cc1nc(N2CCc3cccc(N4CCN(C(=O)Cn5cnc6cccnc65)[C@H](C)C4)c3C2)sc1C` [Example 116, 1-{(R)-4-[2-(4,5-Dimethyl-thiazol-2-yl)-1,2,3,4-tetrahydro-isoquinolin-8-yl]-2-methyl-piperazin-1-yl}-2-imidazo[4,5-b]pyridin-3-yl-ethanone], for which the 50% inhibitory concentration (IC50) was 15.1 nM.

Regarding `C[C@@H]1CN(c2cccc3c2CN(c2nc(C#N)cs2)CC3)CCN1C(=O)Cn1cnc2cccnc21` [Example 117, 2-{8-[(R)-4-(2-Imidazo[4,5-b]pyridin-3-yl-acetyl)-3-methyl-piperazin-1-yl]-3,4-dihydro-1H-isoquinolin-2-yl}-thiazole-4-carbonitrile], the IC50 stood at 3.7 nM.

In the case of `COc1ncc(N2CCc3cccc(N4CCN(C(=O)Cn5cnc6cccnc65)[C@H](C)C4)c3C2)cn1` [Example 118, 2-Imidazo[4,5-b]pyridin-3-yl-1-{(R)-4-[2-(2-methoxy-pyrimidin-5-yl)-1,2,3,4-tetrahydro-isoquinolin-8-yl]-2-methyl-piperazin-1-yl}-ethanone], the IC50 came out at 6.49 nM.

On to `COc1ccc(N2CCc3cccc(N4CCN(C(=O)Cn5cnc6cccnc65)[C@H](C)C4)c3C2)nn1` [Example 119, 2-Imidazo[4,5-b]pyridin-3-yl-1-{(R)-4-[2-(6-methoxy-pyridazin-3-yl)-1,2,3,4-tetrahydro-isoquinolin-8-yl]-2-methyl-piperazin-1-yl}-ethanone], for which the IC50 stood at 10.9 nM.

As to `COc1cncc(N2CCc3cccc(N4CCN(C(=O)Cn5cnc6cccnc65)[C@H](C)C4)c3C2)n1` [Example 120, 2-Imidazo[4,5-b]pyridin-3-yl-1-{(R)-4-[2-(6-methoxy-pyrazin-2-yl)-1,2,3,4-tetrahydro-isoquinolin-8-yl]-2-methyl-piperazin-1-yl}-ethanone], the IC50 is 2.03 nM.

In the case of `COc1nc(OC)nc(N2CCc3cccc(N4CCN(C(=O)Cn5cnc6cccnc65)[C@H](C)C4)c3C2)n1` [Example 121, 1-{(R)-4-[2-(4,6-Dimethoxy-[1,3,5]triazin-2-yl)-1,2,3,4-tetrahydro-isoquinolin-8-yl]-2-methyl-piperazin-1-yl}-2-imidazo[4,5-b]pyridin-3-yl-ethanone], the half-inhibitory concentration (IC50) was found to be 3.39 nM.

For `COc1nccc(N2CCc3cccc(N4CCN(C(=O)Cn5cnc6cccnc65)[C@H](C)C4)c3C2)n1` [Example 122, 2-Imidazo[4,5-b]pyridin-3-yl-1-{(R)-4-[2-(2-methoxy-pyrimidin-4-yl)-1,2,3,4-tetrahydro-isoquinolin-8-yl]-2-methyl-piperazin-1-yl}-ethanone], the IC50 came out at 27.9 nM.

Take `CCOc1ncc(N2CCc3cccc(N4CCN(C(=O)Cn5cnc6cccnc65)[C@H](C)C4)c3C2)cn1` [Example 123, 1-{(R)-4-[2-(2-Ethoxy-pyrimidin-5-yl)-1,2,3,4-tetrahydro-isoquinolin-8-yl]-2-methyl-piperazin-1-yl}-2-imidazo[4,5-b]pyridin-3-yl-ethanone]: the IC50 was found to be 4.71 nM.
